{
  "source": "patent US4716175A",
  "about": "“Saturated fatty acid amides as inhibitors of acyl-CoA:cholesterol acyltransferase” (Warner-Lambert Company, priority 1987, dated 1987)",
  "data": [
    {"test_system": "serum cholesterol", "assay": "cholesterol-fed rabbit test", "type": "in vivo, male, New Zealand white rabbits", "conditions": "oral 50 mg/kg thirty minutes prior to each meal for seven days, serum cholesterol three hours after last meal", "description": "In the cholestrol-fed rabbit test, male, New Zealand white rabbits weighing approximately 1 kg were fed a normal diet 40 g per day of rabbit chow (Purina NO. 5321, Ralston Purina Co., 711 West Fuesser Road, Mascoutah, Ill., 62224, USA). After six days on this diet, the rabbits were fed 50 g per day for three days of a cholsterol-enriched diet consisting of one part of a cholesterol-containing chow (Purina Catalog No. 841206WLI, 0.25% cholesterol) and two parts of normal chow. Next, the rabbits were fed 60 g per day for four days of a cholsterol-enriched diet consisting of two parts of a cholesterol-containing chow (Purina Catalog No. 841206WLI, 0.25% cholesterol) and one part of normal chow.\nAfter this meal adaptation and cholesterol loading period, the test compounds of this invention were administered to the test animals in oral doses of 50 mg/kg of body weight thirty minutes prior to each meal for seven days. Control animals were administered vehicle only.\nThe animals were sacrificed three hours after their last meal in the postabsorptive state. Serum cholesterol levels were determined for each animal, and the data appear in Table 2 expressed as percent change in serum cholesterol level compared to control.", "units": {"Percent Reduction in Cholesterol, Rabbit (percent change in serum cholesterol level compared to control)": "%"}, "values": [
      {"smiles": "CCCCCCCCCCC(C)(C)C(=O)Nc1c(OC)cc(OC)cc1OC", "note": "[2,2-Dimethyl-N-(2,4,6-trimethoxyphenyl)dodecanamide]", "Percent Reduction in Cholesterol, Rabbit (percent change in serum cholesterol level compared to control)": -67},
      {"smiles": "CCCCCCCCCCCCC(C)C(=O)Nc1c(OC)cc(OC)cc1OC", "note": "(centres unmarked) [2-Methyl-N-(2,4,6-trimethoxyphenyl)tetradecanamide]", "Percent Reduction in Cholesterol, Rabbit (percent change in serum cholesterol level compared to control)": -45},
      {"smiles": "CCCCCCCCCCCCC(C)C(=O)Nc1c(OC)ncnc1OC", "note": "(centres unmarked) [N-(4,6-dimethoxy-5-pyrimidinyl)-2-methyltetradecanamide]", "Percent Reduction in Cholesterol, Rabbit (percent change in serum cholesterol level compared to control)": -29}
    ]},
    {"test_system": "total cholesterol", "assay": "cholesterol-fed rat test", "type": "in vivo, male, Sprague-Dawley rats", "conditions": "drug admixed in diet with 5.5% peanut oil, 1.5% cholesterol and 0.3% cholic acid, one week, nonfasted", "description": "In the cholesterol-fed rat test, male, Sprague-Dawley rats (approximately 200 g body weight) were randomly divided into groups and provided ad libitum a regular rat chow diet (Purina No. 5002) supplemented with 5.5% peanut oil, 1.5% cholesterol and 0.3% cholic acid, with or without drug admixed at the indicated levels (w/w). After one week, the animals (nonfasted) were etherized and blood was taken from the heart into EDTA (0.14% final concentration) to measure total cholesterol using the Abbott VP Analyzer.", "units": {"Percent Reduction in Cholesterol, Rat": "%"}, "values": [
      {"smiles": "CCCCCCCCCCC1(C(=O)Nc2c(OC)cc(OC)cc2OC)CCCC1", "note": "[1-Decyl-N-(2,4,6-trimethoxyphenyl)cyclopentanecarboxamide]", "Percent Reduction in Cholesterol, Rat": -52},
      {"smiles": "CCCCCCCCCCC(C)(C)C(=O)Nc1c(OC)cc(OC)cc1OC", "note": "[2,2-Dimethyl-N-(2,4,6-trimethoxyphenyl)dodecanamide]", "Percent Reduction in Cholesterol, Rat": -54},
      {"smiles": "CCCCCCCCCCCCC(C)C(=O)Nc1c(OC)cc(OC)cc1OC", "note": "(centres unmarked) [2-Methyl-N-(2,4,6-trimethoxyphenyl)tetradecanamide]", "Percent Reduction in Cholesterol, Rat": -52}
    ]},
    {"biological_target": "T1, acyl-CoA:cholesterol acyltransferase (ACAT) (Oryctolagus cuniculus, UniProt G1SFD9)", "T1 construct": "tissue preparation containing rabbit intestinal microsomes; from tissue; host or cells: rabbit intestinal microsomes", "T1 sequence (G1SFD9 1-524)": "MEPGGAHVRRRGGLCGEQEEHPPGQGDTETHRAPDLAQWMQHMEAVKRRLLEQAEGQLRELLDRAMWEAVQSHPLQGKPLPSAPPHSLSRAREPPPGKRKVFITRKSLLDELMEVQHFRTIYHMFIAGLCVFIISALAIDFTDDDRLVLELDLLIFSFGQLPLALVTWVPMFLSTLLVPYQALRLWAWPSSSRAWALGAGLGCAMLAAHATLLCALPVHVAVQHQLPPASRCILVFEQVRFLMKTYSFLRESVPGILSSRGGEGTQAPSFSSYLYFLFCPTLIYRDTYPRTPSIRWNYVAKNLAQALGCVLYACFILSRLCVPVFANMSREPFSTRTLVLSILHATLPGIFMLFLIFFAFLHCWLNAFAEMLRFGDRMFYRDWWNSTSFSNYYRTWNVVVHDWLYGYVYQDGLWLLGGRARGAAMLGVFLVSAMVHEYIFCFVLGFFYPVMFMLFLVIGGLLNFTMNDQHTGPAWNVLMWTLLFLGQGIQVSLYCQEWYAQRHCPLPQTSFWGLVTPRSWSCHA", "assay": "in vitro inhibition of ACAT (cholesterol esterification by radio-labeled oleic acid, rabbit intestinal microsomes)", "type": "biochemical", "conditions": "not given", "description": "The test assesses the ability of a compound to inhibit the acylation of cholesterol by oleic acid by measuring the amount of radio-labeled cholesterol oleate formed from radio-labeled oleic acid in a tissue preparation containing rabbit intestinal microsomes.", "units": {"IC50": "µM"}, "values": [
      {"smiles": "CCCCCCCCCCC1(C(=O)Nc2c(OC)cc(OC)cc2OC)CCCC1", "note": "[1-Decyl-N-(2,4,6-trimethoxyphenyl)cyclopentanecarboxamide]", "IC50": 0.007},
      {"smiles": "CCCCCCCCCCCCCCC(C)(C)C(=O)NC(C)c1ccccn1", "note": "(centres unmarked) [2,2-Dimethyl-N-[1-(2-pyridinyl)ethyl]hexadecanamide]", "IC50": 0.7},
      {"smiles": "CCCCCCCCCCCCC(CC)C(=O)Nc1c(OC)cc(OC)cc1OC", "note": "(centres unmarked) [2-Ethyl-N-(2,4,6-trimethoxyphenyl)tetradecanamide]", "IC50": 0.05},
      {"smiles": "CCCCCCCCCCC(CC)C(=O)NC(C)c1ccccn1", "note": "(centres unmarked) [2-Ethyl-N-[1-(2-pyridinyl)ethyl]dodecanamide]", "IC50": 1.6},
      {"smiles": "CCCCCCCCCCC(C)C(=O)NC(C)c1ccccn1", "note": "(centres unmarked) [2-Methyl-N-[1-(2-pyridinyl)ethyl]dodecanamide]", "IC50": 3.3},
      {"smiles": "CCCCCCCCCCCCC(C)C(=O)NC(C)c1ccccn1", "note": "(centres unmarked) [2-Methyl-N-[1-(2-pyridinyl)ethyl]tetradecanamide]", "IC50": 0.8},
      {"smiles": "CCCCCCCCCCC(CCC)C(=O)NC(C)c1ccccn1", "note": "(centres unmarked) [2-Propyl-N-[1-(2-pyridinyl)ethyl]dodecanamide]", "IC50": 3.7},
      {"smiles": "CCCCCCCCCCCCC(CC)C(=O)NC(C)c1ccccn1", "note": "(centres unmarked) [2-ethyl-N-[1-(2-pyridinyl)ethyl]tetradecanamide]", "IC50": 0.7},
      {"smiles": "CCCCCCCCCCCCCCC(C)C(=O)NC(C)c1ccccn1", "note": "(centres unmarked) [2-methyl-N-[1-(2-pyridinyl)ethyl]hexadecanamide]", "IC50": 1.4},
      {"smiles": "CCCCCCCC/C=C\\CCCCCCCCC(C)(C)C(=O)Nc1c(OC)cc(OC)cc1OC", "note": "[(Z)-2,2-Dimethyl-N-(2,4,6-trimethoxyphenyl)-11-eicosenamide]", "IC50": 0.11},
      {"smiles": "CCCCCCCC/C=C\\CCCCCCC(C)C(=O)Nc1c(OC)cc(OC)cc1OC", "note": "(centres unmarked) [(Z)-2-methyl-N-(2,4,6-trimethoxyphenyl)-9-octadecenamide]", "IC50": 0.034},
      {"smiles": "CCCCCCCC/C=C\\CCCCCCCCC(C)(C)C(=O)Nc1c(C)cccc1OC", "note": "[(Z)-N-(2-Methoxy-6-methylphenyl)-2,2-dimethyl-11-eicosenamide]", "IC50": 0.68},
      {"smiles": "CCCCCCCC/C=C\\CCCCCCCCC(C)(C)C(=O)Nc1c(OC)ncnc1OC", "note": "[(Z)-N-(4,6-dimethoxy-5-pyrimidinyl)-2,2-dimethyl-11-eicosenamide]", "IC50": 0.78},
      {"smiles": "CCCCCCCCCCC(C)(C)C(=O)Nc1c(C)cccc1OCC", "note": "[N-(2-Ethoxy-6-methylphenyl)-2,2-dimethyl-dodecanamide]", "IC50": 0.23},
      {"smiles": "CCCCCCCCCCCCC(C)C(=O)Nc1c(OCC)ncnc1OCC", "note": "(centres unmarked) [N-(4,6-Diethoxy-5-pyrimidinyl)-2-methyltetradecanamide]", "IC50": 0.5},
      {"smiles": "CCCCCCCCCCC(C)(C)C(=O)Nc1c(OC)ncnc1OC", "note": "[N-(4,6-Dimethoxy-5-pyrimidinyl)-2,2-dimethyldodecanamide]", "IC50": 0.23},
      {"smiles": "CCCCCCCCCCCCC(CC)C(=O)Nc1c(OC)ncnc1OC", "note": "(centres unmarked) [N-(4,6-Dimethoxy-5-pyrimidinyl)-2-ethyltetradecanamide]", "IC50": 0.26},
      {"smiles": "CCCCCCCCCCCCC(C)(C)C(=O)Nc1c(OC)ncnc1OC", "note": "[N-(4,6-dimethoxy-5-pyrimidinyl)-2,2-dimethyltetradecanamide]", "IC50": 1.3},
      {"smiles": "CCCCCCCCCCCCC(C)C(=O)Nc1c(OC)ncnc1OC", "note": "(centres unmarked) [N-(4,6-dimethoxy-5-pyrimidinyl)-2-methyltetradecanamide]", "IC50": 0.4},
      {"smiles": "CCCCCCCCCCC(Cc1ccccc1)C(=O)NC(C)c1ccccn1", "note": "(stereo not drawn) [α-Decyl-N-[1-(2-pyridinyl)ethyl]benzenepropanamide]", "IC50": 7}
    ]}
  ]
}
